# Assay results reported in the supplement of paper PMC10307832.
# Experiments:
# IU1-47 + Dasatinib = compound: CC1=CC(=C(N1C2=CC=C(C=C2)Cl)C)C(=O)CN3CCCCC3 [IU1-47] + Cc1nc(Nc2ncc(C(=O)Nc3c(C)cccc3Cl)s2)cc(N2CCN(CCO)CC2)n1 [Dasatinib] (partner 0.075 µM); test: relative viability (nuclei count vs DMSO), 5 days (fraction); higher = more cells survive
# Outline: (§1)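 Relative viability divides the nuclei count in treated wells by that in vehicle wells. Lung cancer cell lines were seeded in 1536-well plates, dosed by pin tool the next day, and fixed and stained after 5 days in one step with final 0.05% Triton X-100, 1% formaldehyde and 1 ug/ml Hoechst. Dosing was a single drug or a fixed anchor-drug dose plus five library-drug doses (not always all listed) in √10 steps, and values are medians of duplicate plates imaged at 4×.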
# IU1-47 + Luminespib = compound: CC1=CC(=C(N1C2=CC=C(C=C2)Cl)C)C(=O)CN3CCCCC3 [IU1-47] + CCNC(=O)c1noc(-c2cc(C(C)C)c(O)cc2O)c1-c1ccc(CN2CCOCC2)cc1 [Luminespib] (partner 0.01 µM); test: as above
# Outline: as §1
Cell Line,relative viability (IU1-47 + Dasatinib; first compound 0.08 µM),relative viability (IU1-47 + Dasatinib; first compound 0.253 µM),relative viability (IU1-47 + Dasatinib; first compound 0.8 µM),relative viability (IU1-47 + Dasatinib; first compound 2.53 µM),relative viability (IU1-47 + Dasatinib; first compound 8 µM),relative viability (IU1-47 + Luminespib; first compound 0.08 µM),relative viability (IU1-47 + Luminespib; first compound 0.253 µM),relative viability (IU1-47 + Luminespib; first compound 0.8 µM),relative viability (IU1-47 + Luminespib; first compound 2.53 µM),relative viability (IU1-47 + Luminespib; first compound 8 µM)
NCI-H727,0.396,0.398,0.362,0.289,0.442,0.356,0.241,0.803,0.365,0.293
NCI-H1355,0.655,0.798,0.706,–,0.667,0.773,0.721,0.735,–,0.64
HOP-62,0.673,0.652,0.709,0.531,0.564,0.957,0.964,1.04,0.925,1.06
NCI-H2085,0.218,0.269,0.242,0.228,0.252,0.446,0.5,0.522,0.446,0.318
